In US20210276977A1, “BICYCLIC INHIBITORS OF HISTONE DEACETYLASE” (Alkermes, Inc., priority 2018, published 2021) one finds IC50 data, which are given here for 13 compounds.

Structures are written as SMILES.

Experiment [1] concerns the target T1, Full length Human HDAC2 (Homo sapiens, UniProt Q92769).
T1 construct: Full length Human HDAC2; FLAG (C); host or cells: baculovirus expression system
Put plainly: HDAC2 enzymatic assay (deacetylation of FAM-labeled peptide substrate, microfluidic electrophoresis). It is filed as biochemical. Particulars: recombinant enzymatic assay. How it is done: (§1) HDAC2 and HDAC1 Enzymatic Assay (HDAC2 and HDAC1 IC50 Data)
(§2) The following describes an assay protocol for measuring the deacetylation of a peptide substrate by HDAC2 or HDAC1.
(§3) HD AC protein composition and respective substrate peptides are summarized below.
(§4) HD AC reactions are assembled in 384 well plates (Greiner) in a total volume of 20 μL as following:
(§5) HDAC proteins are pre-diluted in the assay buffer comprising: 100 mM HEPES, pH 7.5, 0.1% BSA, 0.01% Triton X-100, 25 mM KCl and dispensed into 384 well plate (10 uL per well).
(§6) Test compounds are serially pre-diluted in DMSO and added to the protein samples by acoustic dispensing (Labcyte Echo). Concentration of DMSO is equalized to 1% in all samples.
(§7) Control samples (0%-inhibition in the absence of inhibitor, DMSO only) and 100%-inhibition (in the absence of enzyme) are assembled in replicates of four and used to calculate the %-inhibition in the presence of compounds.
(§8) At this step compounds can be pre-incubated with enzyme if desired.
(§9) The reactions are initiated by addition of 10 uL of the FAM-labeled substrate peptide pre-diluted in the same assay buffer. Final concentration of substrate peptide is 1 uM (HDAC1-2).
(§10) The reactions are allowed to proceed at room temperature. Following incubation, the reactions are quenched by addition of 50 μL of termination buffer (100 mM HEPES, pH7.5, 0.01% Triton X-100, 0.1% SDS). Terminated plates are analyzed on a microfluidic electrophoresis instrument (Caliper LabChip® 3000, Caliper Life Sciences/Perkin Elmer) which enables electrophoretic separation of de-acetylated product from acetylated substrate. A change in the relative intensity of the peptide substrate and product is the parameter measured. Activity in each test sample is determined as the product to sum ratio (PSR): P/(S+P), where P is the peak height of the product, and S is the peak height of the substrate. Percent inhibition (Pinh) is determined using the following equation: Pinh=(PSR0% inh−PSRcompound)/(PSR0% inh−PSR100% inh)*100, in which: PSRcompound is the product/sum ratio in the presence of compound, PSR0% inh is the product/sum ratio in the absence of compound and the PSR100% inh is the product/sum ratio in the absence of the enzyme. To determine IC50 of compounds (50%-inhibition) the %-inh data (Pinh versus compound concentration) are fit by a 4 parameter sigmoid dose-response model using XLfit software (IDBS).
(§11) In the table, “A” indicates a IC50 value of less than 0.5 μM; “B” a IC50 value from 0.5 μM to 1.0 μM; “C” a IC50 value of greater than 1.0 μM and less than or equal to 2.0 μM; and “D” indicates an IC50 value of greater than 2.0 μM. NT=Not Tested.

The target of experiment [2] is T2, HDAC2 (Homo sapiens, UniProt Q92769).
T2 construct: host or cells: SH-SY5Y cells
T2 sequence (Q92769 whole entry): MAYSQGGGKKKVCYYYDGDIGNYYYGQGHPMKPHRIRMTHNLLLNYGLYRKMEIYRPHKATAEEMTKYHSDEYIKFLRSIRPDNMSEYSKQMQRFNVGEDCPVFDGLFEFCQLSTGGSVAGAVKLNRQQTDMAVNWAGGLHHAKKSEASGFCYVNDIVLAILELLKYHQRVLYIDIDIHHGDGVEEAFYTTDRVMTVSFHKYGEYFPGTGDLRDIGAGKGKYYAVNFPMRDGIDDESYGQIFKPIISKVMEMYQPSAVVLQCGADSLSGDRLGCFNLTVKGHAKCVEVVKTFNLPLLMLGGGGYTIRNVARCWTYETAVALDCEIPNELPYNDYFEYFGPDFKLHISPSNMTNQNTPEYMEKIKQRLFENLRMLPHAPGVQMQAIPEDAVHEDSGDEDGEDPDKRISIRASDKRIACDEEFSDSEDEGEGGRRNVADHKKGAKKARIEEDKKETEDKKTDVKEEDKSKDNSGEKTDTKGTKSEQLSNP
The experiment in a line: HDAC2 Enzymatic Inhibition Assay in SH-SY5Y Cell Lysate with an Exogenous Substrate (HDAC-Glo 2). Particulars: SH-SY5Y cells, five hours incubation, Table 3, class symbols. It is filed as cell-based. How it is done: HDAC2 Enzymatic Inhibition Assay in SH-SY5Y Cell Lysate with an Exogenous Substrate
SH-SY5Y cells (Sigma) were cultured in Eagle's Modified Essential Medium supplemented with 10% fetal bovine serum and pen/strep. Twenty-four hours prior to compound dosing 20 uL of cells were plated in white 384 well plates at a density of 1,500 cells/well. Compounds were serially diluted in neat DMSO and then diluted 1:100 v/v into media without FBS and mixed. Media was removed from the plated cells and the diluted compounds in serum free media (1% v/v final DMSO) were added and incubated at 37° C. for five hours. Ten uL of HDAC-Glo 2 reagent with 0.1% Triton X-100 was then added, the plate was mixed and allowed to develop at room temperature for 100 minutes. Plates were then read with a Spectramax LMax luminometer employing a 0.4 s integration time. Dose response curves were constructed with normalized data where CI-994 at 100 uM was defined as 100% inhibition and DMSO alone as 0% inhibition.
as §11

The target of experiment [3] is T3, Full length Human HDAC1 (Homo sapiens, UniProt Q13547).
T3 construct: Full length Human HDAC1; His (C); FLAG (C); host or cells: baculovirus expression system
T3 sequence (Q13547 whole entry): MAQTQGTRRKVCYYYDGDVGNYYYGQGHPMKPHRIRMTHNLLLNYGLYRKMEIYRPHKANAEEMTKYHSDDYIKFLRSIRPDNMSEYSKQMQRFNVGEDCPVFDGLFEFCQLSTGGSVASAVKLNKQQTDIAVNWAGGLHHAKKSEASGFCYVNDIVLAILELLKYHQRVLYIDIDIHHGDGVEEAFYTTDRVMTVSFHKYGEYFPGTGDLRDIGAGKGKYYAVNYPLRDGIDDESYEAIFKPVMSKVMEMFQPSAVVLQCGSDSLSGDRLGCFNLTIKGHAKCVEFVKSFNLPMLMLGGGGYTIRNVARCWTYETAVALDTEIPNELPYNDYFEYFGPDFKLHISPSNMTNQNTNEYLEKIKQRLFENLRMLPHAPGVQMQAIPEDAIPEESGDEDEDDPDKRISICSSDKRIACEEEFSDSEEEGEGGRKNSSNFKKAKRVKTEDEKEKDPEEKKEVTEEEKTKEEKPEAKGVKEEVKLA
The experiment in a line: HDAC1 enzymatic assay (deacetylation of FAM-labeled peptide substrate, microfluidic electrophoresis). The note with it: recombinant enzymatic assay. It is filed as biochemical. The protocol: as §1, §2, §3, §4, §5, §6, §7, §8, §9, §10, §11

T1 sequence (Q92769 whole entry): as the sequence (Q92769 whole entry) above

Take `Nc1ccc(-c2ccc(F)cc2)nc1NC(=O)N1CC(Cn2cccn2)C1` [Compound 73]: the IC50 in experiment [1] (Table 2, class symbols) lay within 1000 to 2000 nM; in experiment [2], 1000 to 2000 nM; in experiment [3] (Table 2, class symbols) it was 500 to 1000 nM.

In the case of `Nc1ccc(-c2ccc(F)cc2)nc1NC(=O)N1CC(Cc2ccccn2)C1` [Compound 74], the 50% inhibitory concentration (IC50) in experiment [1] (Table 2, class symbols) was 500 to 1000 nM; in experiment [2] it was 1000 to 2000 nM; in experiment [3] (Table 2, class symbols), below 500 nM.

As to `Nc1ccc(-c2ccc(F)cc2)nc1NC(=O)N1CC(Cc2ncc(C(F)F)cn2)C1` [Compound 76], the IC50 in experiment [1] (Table 2, class symbols) is 500 to 1000 nM; in experiment [2], 1000 to 2000 nM; in experiment [3] (Table 2, class symbols), below 500 nM.

As for `Nc1ccc(-c2ccc(F)cc2)nc1NC(=O)N1CC(Cc2ccc(F)cn2)C1` [Compound 77], the 50% inhibitory concentration (IC50) was 1000 to 2000 nM in experiment [1] (Table 2, class symbols); above 2000 nM in experiment [2]; below 500 nM in experiment [3] (Table 2, class symbols).

In the case of `Nc1ccc(-c2ccc(F)cc2)nc1NC(=O)N1CC(Cc2cnc(C(F)(F)F)nc2)C1` [Compound 78], the IC50 in experiment [1] (Table 2, class symbols) is above 2000 nM; in experiment [2] it was above 2000 nM; in experiment [3] (Table 2, class symbols), above 2000 nM.

As for `Cc1cccc(CC2CN(C(=O)Nc3nc(-c4ccc(F)cc4)ccc3N)C2)n1` [Compound 79], the half-maximal inhibitory concentration (IC50) in experiment [1] (Table 2, class symbols) was 1000 to 2000 nM; in experiment [2] it was above 2000 nM; in experiment [3] (Table 2, class symbols), 500 to 1000 nM.

On to `Cc1ncc(CC2CN(C(=O)Nc3nc(-c4ccc(F)cc4)ccc3N)C2)cn1` [Compound 80], for which the 50% inhibitory concentration (IC50) in experiment [1] (Table 2, class symbols) fell in the range of 1000 to 2000 nM; in experiment [2], 1000 to 2000 nM; in experiment [3] (Table 2, class symbols), 500 to 1000 nM.

Take `CC(F)(F)c1cnc(CC2CN(C(=O)Nc3nc(-c4ccc(F)cc4)ccc3N)C2)nc1` [Compound 81]: the half-inhibitory concentration (IC50) was 500 to 1000 nM in experiment [1] (Table 2, class symbols); above 2000 nM in experiment [2]; below 500 nM in experiment [3] (Table 2, class symbols).

Take `COCc1cnc(CC2CN(C(=O)Nc3nc(-c4ccc(F)cc4)ccc3N)C2)nc1` [Compound 82]: the 50% inhibitory concentration (IC50) was 500 to 1000 nM in experiment [1] (Table 2, class symbols); 1000 to 2000 nM in experiment [2]; below 500 nM in experiment [3] (Table 2, class symbols).

On to `COCc1ccc(CC2CN(C(=O)Nc3nc(-c4ccc(F)cc4)ccc3N)C2)nc1` [Compound 83], for which the half-maximal inhibitory concentration (IC50) in experiment [1] (Table 2, class symbols) is 500 to 1000 nM; in experiment [2], 1000 to 2000 nM; in experiment [3] (Table 2, class symbols), below 500 nM.

As to `Nc1ccc(-c2ccc(F)cc2)nc1NC(=O)N1CC(Cc2ncc(C(F)(F)F)cn2)C1` [Compound 84], the IC50 in experiment [1] (Table 2, numeric value) is 1190 nM; in experiment [2], above 2000 nM; in experiment [3] (Table 2, numeric value), 346 nM.

In the case of `Cn1ccnc1CC1(F)CN(C(=O)Nc2nc(-c3ccc(F)cc3)ccc2N)C1` [Compound 86], the half-maximal inhibitory concentration (IC50) is above 2000 nM in experiment [1] (Table 2, class symbols); 1000 to 2000 nM in experiment [2]; 1000 to 2000 nM in experiment [3] (Table 2, class symbols).

In the case of `COC1(Cc2nccn2C)CN(C(=O)Nc2nc(-c3ccc(F)cc3)ccc2N)C1` [Compound 87], the IC50 in experiment [1] (Table 2, class symbols) was above 2000 nM; in experiment [2], 1000 to 2000 nM; in experiment [3] (Table 2, class symbols), above 2000 nM.
